From US9914722B2, “Compounds for treating spinal muscular atrophy” (PTC Therapeutics Inc., priority 2012, dated 2018)

Test system: full length SMN2 minigene mRNA containing SMN2 exon 7 (SMN2-A minigene)
Test: SMN2 minigene mRNA splicing RT-qPCR assay in cultured cells
Type: cell-based, human
Details: for SMN2 minigene FL mRNA relative to vehicle / SMN2 minigene alternative splicing / exon 7 inclusion: HEK293H cells with SMN2-A minigene, 24 hr, RT-qPCR, FIG. 3; for EC (1.5-fold): Homo sapiens, HEK293-H, HEK293H cells stably transfected with SMN2-A minigene, 24 hours, 7-point concentration curve, concentration giving 1.5-fold SMN2 full length mRNA vs vehicle, read-out: EC1.5x for production of full length SMN2 mRNA
Procedure, shortened: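 HEK293H cells stably carrying the SMN2-A minigene were treated 24 h at 37 °C with a 7-point, 3.16-fold test compound series, in duplicate. Multiplex RT-qPCR measured exon 7-containing minigene FL mRNA, normalized to GAPDH and expressed relative to vehicle; EC1.5x is the concentration giving 1.5-fold FL mRNA.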

SMILES | SMN2 minigene FL mRNA relative to vehicle | SMN2 minigene alternative splicing / exon 7 inclusion | EC (1.5-fold) [µM]
C[C@@H]1CN(c2ccc3oc(-c4cn5ccccc5n4)cc(=O)c3c2)C[C@H](C)N1 [Cpd 17, 6-[(3R,5S)-3,5-dimethylpiperazin-1-yl]-2-(imidazo[1,2-a]pyridin-2-yl)-4H-chromen-4-one] | increased SMN2 minigene FL mRNA at low concentrations | correction of SMN2 minigene alternative splicing | 1 to 3
COc1ccc(-c2cc(=O)c3cc(N4CCN[C@@H](C)C4)ccc3o2)cc1F [Cpd 38, 2-(3-fluoro-4-methoxyphenyl)-6-[(3S)-3-methylpiperazin-1-yl]-4H-chromen-4-one] | increased SMN2 minigene FL mRNA at low concentrations | correction of SMN2 minigene alternative splicing | ≤ 0.1
